Test results: ChEMBL document CHEMBL1201862, “PubChem BioAssay data set” (2004)
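Five compound concentrations were applied to cells in 96-well plates for 48 hours; endpoints were derived by simple linear interpolation of the resulting dose-response curve. Here, GI50 denotes the concentration required for 50% inhibition of growth.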 Calls of active or inactive are those of the source. No stated cut-off is given here; in the data, active = GI50 up to about 1.1 µM and inactive = higher.

Experiments:
Experiment in all cases: NCI tumour cell line growth inhibition, 48 h
ACHN = system: ACHN
BT-549 = system: BT-549
HL-60 = system: HL-60
HOP-92 = system: HOP-92
HT-29 = system: HT-29
K562 = system: K562
KM12 = system: KM12
LOX IMVI = system: LOX IMVI
M14 = system: M14
MDA-MB-231 = system: MDA-MB-231
MDA-MB-435 = system: MDA-MB-435
OVCAR-8 = system: OVCAR-8
SK-MEL-5 = system: SK-MEL-5
SNB-19 = system: SNB-19
SR = system: SR
CAKI-1 = system: CAKI-1
HCT-116 = system: HCT-116
RPMI-8226 = system: RPMI-8226
HCC 2998 = system: HCC 2998
NCI-H522 = system: NCI-H522

Row | SMILES | GI50 (ACHN) | GI50 (BT-549) | GI50 (HL-60) | GI50 (HOP-92) | GI50 (HT-29) | GI50 (K562) | GI50 (KM12) | GI50 (LOX IMVI) | GI50 (M14) | GI50 (MDA-MB-231) | GI50 (MDA-MB-435) | GI50 (OVCAR-8) | GI50 (SK-MEL-5) | GI50 (SNB-19) | GI50 (SR) | GI50 (CAKI-1) | GI50 (HCT-116) | GI50 (RPMI-8226) | GI50 (HCC 2998) | GI50 (NCI-H522)
1 | CC1CCCCNC1=S (stereo unspecified) | > 10 µM (inactive) | > 10 µM (inactive) | > 10 µM (inactive) | > 10 µM (inactive) | > 10 µM (inactive) | > 10 µM (inactive) | > 10 µM (inactive) | > 10 µM (inactive) | > 10 µM (inactive) | > 10 µM (inactive) | > 10 µM (inactive) | > 10 µM (inactive) | > 10 µM (inactive) | > 10 µM (inactive) | > 10 µM (inactive) | – | – | – | – | –
2 | CCOC(=O)O/C(=C\c1ccc(OC)cc1)c1c(OC(=O)OCC)n(C(=O)OCC)c2ccccc12 | 29.1 µM (inactive) | 39.5 µM (inactive) | > 100 µM (inactive) | – | 47.3 µM (inactive) | 2.77 µM (inactive) | 7.83 µM (inactive) | 42.3 µM (inactive) | 23.6 µM (inactive) | 18.5 µM (inactive) | 24.9 µM (inactive) | 59.2 µM (inactive) | 39 µM (inactive) | – | 15.3 µM (inactive) | 57.9 µM (inactive) | 33.9 µM (inactive) | 1.83 µM (inactive) | – | –
3 | NC(CCCCNC(=O)C(Cc1ccccc1)NC(=O)OCc1ccccc1)C(=O)NC(CCCCNC(=O)C(Cc1ccccc1)NC(=O)OCc1ccccc1)C(=O)NC(CCCCNC(=O)C(Cc1ccccc1)NC(=O)OCc1ccccc1)C(=O)NC(CCCCNC(=O)C(Cc1ccccc1)NC(=O)OCc1ccccc1)C(=O)NC(CCCCNC(=O)C(Cc1ccccc1)NC(=O)OCc1ccccc1)C(=O)NC(CCCCNC(=O)C(Cc1ccccc1)NC(=O)OCc1ccccc1)C(=O)O (stereo unspecified) | > 100 µM (inactive) | > 100 µM (inactive) | > 100 µM (inactive) | – | > 100 µM (inactive) | > 100 µM (inactive) | – | > 100 µM (inactive) | > 100 µM (inactive) | > 100 µM (inactive) | > 100 µM (inactive) | > 100 µM (inactive) | > 100 µM (inactive) | > 100 µM (inactive) | > 100 µM (inactive) | > 100 µM (inactive) | > 100 µM (inactive) | > 100 µM (inactive) | > 100 µM (inactive) | > 100 µM (inactive)
4 | COC(OC)(c1ccccc1)C(Br)Br | > 100 µM (inactive) | > 100 µM (inactive) | 23.6 µM (inactive) | – | 57.4 µM (inactive) | 13.9 µM (inactive) | > 100 µM (inactive) | 28.2 µM (inactive) | 18.6 µM (inactive) | 74.5 µM (inactive) | 20.2 µM (inactive) | > 100 µM (inactive) | 67.5 µM (inactive) | > 100 µM (inactive) | 21 µM (inactive) | 24.6 µM (inactive) | 17.9 µM (inactive) | 36.5 µM (inactive) | > 100 µM (inactive) | 17.8 µM (inactive)
5 | O=C1CS(=O)(=O)C(c2cccc(Oc3ccccc3)c2)N1c1ccccc1 (stereo unspecified) | 23.7 µM (inactive) | 20.1 µM (inactive) | 21.1 µM (inactive) | 14.6 µM (inactive) | 26.5 µM (inactive) | 14.4 µM (inactive) | 25.8 µM (inactive) | 16.5 µM (inactive) | 18.7 µM (inactive) | 19.9 µM (inactive) | 27.4 µM (inactive) | 27 µM (inactive) | 14.9 µM (inactive) | 43.3 µM (inactive) | 19.9 µM (inactive) | 20.5 µM (inactive) | 16.3 µM (inactive) | – | 16.9 µM (inactive) | 18.9 µM (inactive)
6 | Cc1cc(O)cc(O)c1/N=N/c1ccc([N+](=O)[O-])cc1 | 17.1 µM (inactive) | 15 µM (inactive) | 5.16 µM (inactive) | 2.39 µM (inactive) | 29.3 µM (inactive) | 3.27 µM (inactive) | 22.6 µM (inactive) | 23.7 µM (inactive) | 22.5 µM (inactive) | 14.8 µM (inactive) | 13.8 µM (inactive) | 17.9 µM (inactive) | 12.6 µM (inactive) | 37.3 µM (inactive) | – | 14.2 µM (inactive) | 3.51 µM (inactive) | 5.22 µM (inactive) | 10.4 µM (inactive) | 3.48 µM (inactive)
7 | Cc1ccc(S(=O)(=O)NC(C(=O)O)C(C)C)cc1 (stereo unspecified) | > 100 µM (inactive) | > 100 µM (inactive) | – | > 100 µM (inactive) | > 100 µM (inactive) | > 100 µM (inactive) | > 100 µM (inactive) | > 100 µM (inactive) | > 100 µM (inactive) | > 100 µM (inactive) | > 100 µM (inactive) | > 100 µM (inactive) | > 100 µM (inactive) | > 100 µM (inactive) | > 100 µM (inactive) | > 100 µM (inactive) | > 100 µM (inactive) | – | > 100 µM (inactive) | > 100 µM (inactive)
8 | Cc1nc(C)c(C(=O)NNC(=O)c2ccccc2)cc1C(=O)NNC(=O)c1ccccc1 | > 100 µM (inactive) | > 100 µM (inactive) | > 100 µM (inactive) | > 100 µM (inactive) | > 100 µM (inactive) | > 100 µM (inactive) | > 10 µM (inactive) | > 100 µM (inactive) | > 100 µM (inactive) | > 100 µM (inactive) | > 100 µM (inactive) | > 100 µM (inactive) | > 100 µM (inactive) | > 100 µM (inactive) | – | > 100 µM (inactive) | > 100 µM (inactive) | > 100 µM (inactive) | > 100 µM (inactive) | > 100 µM (inactive)
9 | Cc1c(N)nc(C2CC(=O)N2CC(N)C(N)=O)nc1C(=O)NC(C(=O)NC(C)C(O)C(C)C(=O)NC(C(=O)NCCc1nc(-c2nc(C(=O)NCCNCC(C)O)cs2)cs1)C(C)O)C(OC1OC(CO)C(O)C(O)C1OC1OC(CO)C(O)C(OC(N)=O)C1O)c1c[nH]cn1 (stereo unspecified) | < 0.0249 µM (active) | > 50 µM (inactive) | 5.75 µM (inactive) | 0.295 µM (active) | 21.3 µM (inactive) | 20.1 µM (inactive) | 19.9 µM (inactive) | 0.184 µM (active) | 2.26 µM (inactive) | > 50 µM (inactive) | 3.1 µM (inactive) | 3.36 µM (inactive) | 0.809 µM (active) | 5.38 µM (inactive) | – | < 0.0426 µM (active) | 0.148 µM (active) | 9.02 µM (inactive) | 21.9 µM (inactive) | 0.462 µM (active)
10 | C[O+]=C1C=CC(=C2SC(c3ccccc3)(c3ccccc3)c3ccccc32)C=C1.[O-][Cl+3]([O-])([O-])[O-] | 24.8 µM (inactive) | 24.7 µM (inactive) | 17 µM (inactive) | 16.6 µM (inactive) | 15 µM (inactive) | 26.7 µM (inactive) | 15.7 µM (inactive) | 18 µM (inactive) | 16.1 µM (inactive) | 18.5 µM (inactive) | 18.6 µM (inactive) | 32.1 µM (inactive) | 16.6 µM (inactive) | 39.8 µM (inactive) | – | 30.9 µM (inactive) | 10.3 µM (inactive) | 17.5 µM (inactive) | 26.5 µM (inactive) | 20.7 µM (inactive)
